This is an account of results in ChEMBL document CHEMBL4371066, “Synthesis and characterization of a photoresponsive doxorubicin/combretastatin A4 hybrid prodrug” (Bioorg Med Chem Lett, 2019).

Active and inactive are the calls of the source. The calls are words filed in the database; no cut-off is given here.

What all share (format): functional, cell-based
For assay [1], the system named is MDA-MB-231. The experiment in a line: Cytotoxicity against human MDA-MB-231 cells assessed as reduction in cell viability at 4 to 8 uM measured after 24 hrs by CCK8 assay. (In general: Tetrazolium dyes change colour on reduction, which living cells bring about.)
The test system of assay [2] is MDA-MB-231. The experiment in a line: Phototoxicity against human MDA-MB-231 cells assessed as reduction in cell viability at 4 to 8 uM irradiated with 50 mW cm'-2 UV light for 6 mins and measured after 24 hrs by CCK8 assay.
In assay [3] the test system is MDA-MB-231. The assay is described as follows: Cytotoxicity against human MDA-MB-231 cells assessed as reduction in cell viability at 2 to 8 uM measured after 24 hrs by CCK8 assay.
For assay [4], the system named is MDA-MB-231. The experiment in a line: Phototoxicity against human MDA-MB-231 cells assessed as reduction in cell viability at 2 to 8 uM irradiated with 50 mW cm'-2 UV light for 6 mins and measured after 24 hrs by CCK8 assay.

`COc1cccc2c1C(=O)c1c(O)c3c(c(O)c1C2=O)C[C@@](O)(C(=O)CO)C[C@@H]3O[C@H]1C[C@H](N)[C@H](O)[C@H](C)O1`: the result in the assay on MDA-MB-231 [1] and in the assay with MDA-MB-231 [2] was Active.

For the compound `COc1ccc(/C=C\c2cc(OC)c(OC)c(OC)c2)cc1O`, the outcome in the assay with MDA-MB-231 [3] and with MDA-MB-231 [4] was Active.
